# What was measured:
# [1] = Permeability from apical to basolateral side in human Caco2 cells by HPLC-MS/MS method; assay type: ADME, cell-based; details: Caco-2, read-out: permeability
# [2] = Permeability from basolateral to apical side in human Caco2 cells by HPLC-MS/MS method; assay type: ADME, cell-based; details: Caco-2, read-out: permeability
# [3] = Volume of distribution at steady state in Wistar rat at 0.4 mg/kg, iv by HPLC-MS/MS method; assay type: ADME, organism-based; parameters: dose 0.4 mg/kg, route intravenous; details: in vivo, read-out: Vdss
# [4] = Mean residence time in Wistar rat at 0.4 mg/kg, iv by HPLC-MS/MS method; assay type: ADME, organism-based; parameters: dose 0.4 mg/kg, route intravenous; details: in vivo
# [5] = Oral bioavailability in Wistar rat at […] by HPLC-MS/MS method; assay type: ADME, organism-based; details: in vivo
compound,measurement,setting,value
CC(C)(C)c1cc(NC(=O)[C@@H]2CCCCN2C(=O)N2CCS(=O)(=O)CC2)no1,Papp A→B,[1],20 ×10⁻⁶ cm/s
same,Papp B→A,[2],22 ×10⁻⁶ cm/s
same,Vd,[3],0.5 L/kg
same,MRT,[4],36 min
same,bioavailability,[5],62%

# — ChEMBL document CHEMBL3352656 (Bioorg Med Chem Lett, 2015)
